Laboratory results from US20070037238A1, “Composition for suppressing PQQGDH reaction inhibition” (Toyo Boseki Kabushiki Kaisha, priority 2005, published 2007).

Test system: PQQGDH
Assay: Measurement with glucose electrodes
Format: biochemical
Conditions: 0.1 M potassium ferricyanide, D-glucose 5-40 mM, 25° C., +0.35 V
Procedure: 0.5 g of carbon graphite and 0.3 mL of fluid paraffin were ground well with a mortar and pestle to form a carbon paste. This carbon paste was spread on a platinum electrode, and 10 μL of PQQGDH solution (Toyo Boseki GLD-331, 2,000 U/mL) was placed thereon and air-dried for 30 minutes at room temperature. This electrode was covered with a semipermeable cellulose membrane (molecular weight cut-off 8.000), and the semipermeable membrane was fixed with an O-ring to prepare a glucose electrode. This glucose electrode was used after having been soaked for 30 minutes or more in the buffer used for measurement. […] After about 5 minutes when the response current was confirmed to have stabilized, a D-glucose solution was added and the rise in the response current was monitored. […] The theoretical values here are the response value at each concentration calculated based on measurement values at 5 mM, assuming that the D-glucose amount and measurement value are proportional, and these are given as straight lines in the figures. The response values were more linear when pimelic acid and succinic acid were added in comparison to the solution of phosphoric acid and glutaric acid alone, and the actual measured response values at glucose concentrations of 30 mM or more are particularly close to the corresponding theoretical values.

Compound | linearity of glucose electrode response values versus D-glucose concentration (1% pimelic acid in 50 mM potassium phosphate buffer pH 7.0 (Buffer B vs Buffer A)) | linearity of glucose electrode response values versus D-glucose concentration (1% succinic acid in 50 mM glutaric acid pH 7.0 (Buffer D vs Buffer C))
O=C(O)CCCCCC(=O)O [pimelic acid] | more linear | –
O=C(O)CCC(=O)O [succinic acid] | – | more linear
